PubChem BioAssay (NCI)
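At the GI50, growth is halved. Definition used: TGI = concentration required for complete inhibition of growth.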

Experiments:
Experiment in all cases: NCI-60 cell line screen, 384-well format
SK-MEL-28 melanoma = system: SK-MEL-28 melanoma
HOP-92 NSCLC = system: HOP-92 NSCLC
NCI/ADR-RES ovarian = system: NCI/ADR-RES ovarian
MOLT-4 leukemia = system: MOLT-4 leukemia
A498 renal = system: A498 renal
SK-MEL-2 melanoma = system: SK-MEL-2 melanoma
M14 melanoma = system: M14 melanoma
OVCAR-5 ovarian = system: OVCAR-5 ovarian
NCI-H522 lung = system: NCI-H522 lung
HCT-116 colon = system: HCT-116 colon
DU-145 prostate = system: DU-145 prostate
NCI-H322M lung = system: NCI-H322M lung
CCRF-CEM leukemia = system: CCRF-CEM leukemia
LOX IMVI melanoma = system: LOX IMVI melanoma
A549 NSCLC = system: A549 NSCLC
SNB-19 CNS = system: SNB-19 CNS
OVCAR-4 ovarian = system: OVCAR-4 ovarian
HT29 colon = system: HT29 colon
RPMI-8226 leukemia = system: RPMI-8226 leukemia
MDA-MB-231 breast = system: MDA-MB-231 breast
MDA-MB-468 breast = system: MDA-MB-468 breast
ACHN renal = system: ACHN renal
KM12 colon = system: KM12 colon
SF-539 CNS = system: SF-539 CNS
TK-10 renal = system: TK-10 renal
UACC-62 melanoma = system: UACC-62 melanoma
HL-60(TB) leukemia = system: HL-60(TB) leukemia
HCT-15 colon = system: HCT-15 colon
OVCAR-3 ovarian = system: OVCAR-3 ovarian
SF-295 CNS = system: SF-295 CNS
SW-620 colon = system: SW-620 colon
SNB-75 CNS = system: SNB-75 CNS
NCI-H226 lung = system: NCI-H226 lung
UO-31 renal = system: UO-31 renal
SK-OV-3 ovarian = system: SK-OV-3 ovarian
EKVX NSCLC = system: EKVX NSCLC
UACC-257 melanoma = system: UACC-257 melanoma
MALME-3M melanoma = system: MALME-3M melanoma
IGROV1 ovarian = system: IGROV1 ovarian
SN12C renal = system: SN12C renal
K-562 leukemia = system: K-562 leukemia
U251 glioblastoma = system: U251 glioblastoma
T-47D breast = system: T-47D breast
MDA-MB-435 melanoma = system: MDA-MB-435 melanoma
HOP-62 NSCLC = system: HOP-62 NSCLC
CAKI-1 renal = system: CAKI-1 renal
PC-3 prostate = system: PC-3 prostate
SF-268 CNS = system: SF-268 CNS
NCI-H23 lung = system: NCI-H23 lung
OVCAR-8 ovarian = system: OVCAR-8 ovarian
MCF7 breast = system: MCF7 breast
786-0 renal = system: 786-0 renal
RXF 393 renal = system: RXF 393 renal
BT-549 breast = system: BT-549 breast
HS 578T breast = system: HS 578T breast

Nc1nc(=S)c2[nH]cnc2[nH]1
GI50 (SK-MEL-28 melanoma): 4.57 µM | TGI (SK-MEL-28 melanoma): 26.7 µM | GI50 (HOP-92 NSCLC): 0.393 µM | TGI (HOP-92 NSCLC): 25.2 µM | GI50 (NCI/ADR-RES ovarian): 0.375 µM | TGI (NCI/ADR-RES ovarian): 1.52 µM | GI50 (MOLT-4 leukemia): 0.112 µM | TGI (MOLT-4 leukemia): 0.248 µM | GI50 (A498 renal): 4.85 µM | TGI (A498 renal): 28.7 µM | GI50 (SK-MEL-2 melanoma): 3.32 µM | TGI (SK-MEL-2 melanoma): 7.34 µM | GI50 (M14 melanoma): 0.379 µM | TGI (M14 melanoma): 4.41 µM | GI50 (OVCAR-5 ovarian): 0.199 µM | TGI (OVCAR-5 ovarian): 0.465 µM | GI50 (NCI-H522 lung): 1.03 µM | TGI (NCI-H522 lung): 2.84 µM | GI50 (HCT-116 colon): 0.341 µM | TGI (HCT-116 colon): 7.39 µM | GI50 (DU-145 prostate): 0.311 µM | TGI (DU-145 prostate): 1.18 µM | GI50 (NCI-H322M lung): 2.21 µM | TGI (NCI-H322M lung): 21.2 µM | GI50 (CCRF-CEM leukemia): 0.212 µM | TGI (CCRF-CEM leukemia): 0.383 µM | GI50 (LOX IMVI melanoma): 0.206 µM | TGI (LOX IMVI melanoma): 0.426 µM | GI50 (A549 NSCLC): 2.1 µM | TGI (A549 NSCLC): 7.53 µM | GI50 (SNB-19 CNS): 28 µM | GI50 (OVCAR-4 ovarian): 1.05 µM | TGI (OVCAR-4 ovarian): 7.19 µM | GI50 (HT29 colon): 0.906 µM | TGI (HT29 colon): 5.3 µM | GI50 (RPMI-8226 leukemia): 0.139 µM | TGI (RPMI-8226 leukemia): 0.296 µM | GI50 (MDA-MB-231 breast): 0.283 µM | TGI (MDA-MB-231 breast): 0.918 µM | GI50 (MDA-MB-468 breast): 0.238 µM | TGI (MDA-MB-468 breast): 0.565 µM | GI50 (ACHN renal): 1.52 µM | TGI (ACHN renal): 5.28 µM | GI50 (KM12 colon): 0.917 µM | TGI (KM12 colon): 4.9 µM | GI50 (SF-539 CNS): 0.686 µM | TGI (SF-539 CNS): 7.92 µM | GI50 (TK-10 renal): 0.251 µM | TGI (TK-10 renal): 0.625 µM | GI50 (UACC-62 melanoma): 0.366 µM | TGI (UACC-62 melanoma): 1.69 µM | GI50 (HL-60(TB) leukemia): 0.376 µM | TGI (HL-60(TB) leukemia): 1.1 µM | GI50 (HCT-15 colon): 0.988 µM | TGI (HCT-15 colon): 7.18 µM | GI50 (OVCAR-3 ovarian): 0.306 µM | TGI (OVCAR-3 ovarian): 1.03 µM | GI50 (SF-295 CNS): 0.248 µM | TGI (SF-295 CNS): 0.735 µM | GI50 (SW-620 colon): 3.02 µM | TGI (SW-620 colon): 23.3 µM | GI50 (SNB-75 CNS): 0.353 µM | TGI (SNB-75 CNS): 13.2 µM | GI50 (NCI-H226 lung): 0.36 µM | TGI (NCI-H226 lung): 3.92 µM | GI50 (UO-31 renal): 1.5 µM | TGI (UO-31 renal): 11.8 µM | GI50 (SK-OV-3 ovarian): 0.541 µM | TGI (SK-OV-3 ovarian): 9.85 µM | GI50 (EKVX NSCLC): 0.544 µM | TGI (EKVX NSCLC): 12.2 µM | GI50 (UACC-257 melanoma): 1.13 µM | TGI (UACC-257 melanoma): 8.82 µM | GI50 (MALME-3M melanoma): 0.718 µM | TGI (MALME-3M melanoma): 3.47 µM | GI50 (IGROV1 ovarian): 3.51 µM | TGI (IGROV1 ovarian): 27.7 µM | GI50 (SN12C renal): 1.44 µM | TGI (SN12C renal): 8.29 µM | GI50 (K-562 leukemia): 0.366 µM | TGI (K-562 leukemia): 1.21 µM | GI50 (U251 glioblastoma): 3.4 µM | TGI (U251 glioblastoma): 83.3 µM | GI50 (T-47D breast): 0.715 µM | TGI (T-47D breast): 15.5 µM | GI50 (MDA-MB-435 melanoma): 1.09 µM | TGI (MDA-MB-435 melanoma): 4.73 µM | GI50 (HOP-62 NSCLC): 0.304 µM | TGI (HOP-62 NSCLC): 0.784 µM | GI50 (CAKI-1 renal): 0.371 µM | TGI (CAKI-1 renal): 2.62 µM | GI50 (PC-3 prostate): 1.34 µM | TGI (PC-3 prostate): 14.5 µM | GI50 (SF-268 CNS): 0.428 µM | TGI (SF-268 CNS): 2.4 µM | GI50 (NCI-H23 lung): 0.377 µM | TGI (NCI-H23 lung): 1.69 µM | GI50 (OVCAR-8 ovarian): 0.362 µM | TGI (OVCAR-8 ovarian): 1.56 µM | GI50 (MCF7 breast): 0.297 µM | TGI (MCF7 breast): 1.33 µM | GI50 ([…]-0 renal): 0.469 µM | TGI (786-0 renal): 12 µM | GI50 (RXF 393 renal): 0.728 µM | TGI (RXF 393 renal): 3.51 µM | GI50 (BT-549 breast): 0.449 µM | TGI (BT-549 breast): 2.31 µM | GI50 (HS 578T breast): 1.25 µM | TGI (HS 578T breast): 4.46 µM

O=NN(CCCl)C(=O)NC1CCCCC1
GI50 (SK-MEL-28 melanoma): 42.5 µM | GI50 (HOP-92 NSCLC): 28.9 µM | GI50 (NCI/ADR-RES ovarian): 22.7 µM | TGI (NCI/ADR-RES ovarian): 54.4 µM | GI50 (MOLT-4 leukemia): 12.4 µM | TGI (MOLT-4 leukemia): 25 µM | GI50 (A498 renal): 73.1 µM | GI50 (SK-MEL-2 melanoma): 32.5 µM | TGI (SK-MEL-2 melanoma): 78.9 µM | GI50 (M14 melanoma): 21.9 µM | TGI (M14 melanoma): 65.2 µM | GI50 (NCI-H522 lung): 15.4 µM | TGI (NCI-H522 lung): 29 µM | GI50 (HCT-116 colon): 32.3 µM | GI50 (DU-145 prostate): 51.9 µM | GI50 (CCRF-CEM leukemia): 19.5 µM | TGI (CCRF-CEM leukemia): 33.8 µM | GI50 (LOX IMVI melanoma): 13.2 µM | TGI (LOX IMVI melanoma): 38 µM | GI50 (A549 NSCLC): 51.8 µM | GI50 (SNB-19 CNS): 34.9 µM | GI50 (OVCAR-4 ovarian): 20.6 µM | TGI (OVCAR-4 ovarian): 50.3 µM | GI50 (HT29 colon): 27.1 µM | TGI (HT29 colon): 78 µM | GI50 (RPMI-8226 leukemia): 13.7 µM | TGI (RPMI-8226 leukemia): 26.9 µM | GI50 (MDA-MB-231 breast): 76.1 µM | GI50 (MDA-MB-468 breast): 13.2 µM | TGI (MDA-MB-468 breast): 28.4 µM | GI50 (ACHN renal): 24.9 µM | TGI (ACHN renal): 71.4 µM | GI50 (KM12 colon): 22.2 µM | TGI (KM12 colon): 86.8 µM | GI50 (SF-539 CNS): 16.4 µM | TGI (SF-539 CNS): 35.3 µM | GI50 (TK-10 renal): 32.8 µM | GI50 (UACC-62 melanoma): 12.5 µM | TGI (UACC-62 melanoma): 41.6 µM | GI50 (HL-60(TB) leukemia): 12.2 µM | TGI (HL-60(TB) leukemia): 24.8 µM | GI50 (HCT-15 colon): 19.1 µM | TGI (HCT-15 colon): 41.3 µM | GI50 (OVCAR-3 ovarian): 27.4 µM | TGI (OVCAR-3 ovarian): 98 µM | GI50 (SF-295 CNS): 27.2 µM | GI50 (SW-620 colon): 20.9 µM | TGI (SW-620 colon): 69.1 µM | GI50 (SNB-75 CNS): 34.6 µM | GI50 (NCI-H226 lung): 29.9 µM | GI50 (UO-31 renal): 24.3 µM | TGI (UO-31 renal): 63.1 µM | GI50 (SK-OV-3 ovarian): 55.1 µM | GI50 (UACC-257 melanoma): 52.1 µM | GI50 (MALME-3M melanoma): 18.6 µM | TGI (MALME-3M melanoma): 43.5 µM | GI50 (IGROV1 ovarian): 78 µM | GI50 (SN12C renal): 21.3 µM | TGI (SN12C renal): 61.2 µM | GI50 (K-562 leukemia): 20.1 µM | TGI (K-562 leukemia): 42.5 µM | GI50 (U251 glioblastoma): 18.9 µM | GI50 (T-47D breast): 34.6 µM | GI50 (MDA-MB-435 melanoma): 26 µM | TGI (MDA-MB-435 melanoma): 81.2 µM | GI50 (HOP-62 NSCLC): 18.9 µM | TGI (HOP-62 NSCLC): 56.5 µM | GI50 (CAKI-1 renal): 22.9 µM | TGI (CAKI-1 renal): 75.4 µM | GI50 (PC-3 prostate): 29 µM | GI50 (SF-268 CNS): 29.3 µM | GI50 (NCI-H23 lung): 30.3 µM | GI50 (OVCAR-8 ovarian): 21.4 µM | TGI (OVCAR-8 ovarian): 49.6 µM | GI50 (MCF7 breast): 41.1 µM | GI50 ([…]-0 renal): 20.2 µM | TGI (786-0 renal): 66.4 µM | GI50 (RXF 393 renal): 17.3 µM | TGI (RXF 393 renal): 36 µM | GI50 (BT-549 breast): 21.4 µM | TGI (BT-549 breast): 59.6 µM | GI50 (HS 578T breast): 13.1 µM | TGI (HS 578T breast): 42.5 µM
